Experimental findings from ChEMBL document CHEMBL5096176, “AAA ATPases as therapeutic targets: Structure, functions, and small-molecule inhibitors” (Eur J Med Chem, 2021) are described below.

Structures are written as SMILES.

Data set [1] addresses T1, Spastin (Homo sapiens, UniProt Q9UBP0).
T1 sequence (Q9UBP0 whole entry): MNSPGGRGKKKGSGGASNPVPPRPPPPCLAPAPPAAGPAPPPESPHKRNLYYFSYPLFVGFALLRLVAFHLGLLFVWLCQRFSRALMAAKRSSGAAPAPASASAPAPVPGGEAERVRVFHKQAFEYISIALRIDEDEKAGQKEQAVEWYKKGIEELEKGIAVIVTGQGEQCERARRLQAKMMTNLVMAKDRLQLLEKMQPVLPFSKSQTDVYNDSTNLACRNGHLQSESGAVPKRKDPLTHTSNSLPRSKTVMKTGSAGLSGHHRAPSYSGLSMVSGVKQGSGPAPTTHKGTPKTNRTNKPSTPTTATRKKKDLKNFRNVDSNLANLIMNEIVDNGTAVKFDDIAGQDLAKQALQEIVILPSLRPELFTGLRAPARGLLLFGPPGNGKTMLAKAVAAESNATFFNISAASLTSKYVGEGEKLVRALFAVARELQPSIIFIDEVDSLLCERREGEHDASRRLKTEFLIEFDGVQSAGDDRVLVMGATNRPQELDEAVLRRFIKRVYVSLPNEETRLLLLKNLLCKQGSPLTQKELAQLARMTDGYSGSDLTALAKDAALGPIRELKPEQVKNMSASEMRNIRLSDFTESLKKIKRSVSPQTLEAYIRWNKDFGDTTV
Nature of the data set: Inhibition of human Spastin in presence of ATP.

For data set [2], the target named is T2, Transitional endoplasmic reticulum ATPase (Homo sapiens, UniProt P55072). Put plainly: Inhibition of p97 (unknown origin) incubated for 15 mins in presence of ATP by ADP Glo assay. In general terms: In ADP-Glo the light output rises with the ADP produced.
The test system of a further data set is Huh-7. Put plainly: Anticancer activity against human Huh-7 cells assessed as inhibition of cell proliferation incubated for 4 days by MTS assay. It counts as functional, cell-based. As to conditions: Huh-7, 96 h. On the technique in general: Tetrazolium assays rely on reduction of a dye to a coloured formazan, in cell work by metabolically active cells.
A further data set has as its system Hep 3B2. Nature of the data set: Anticancer activity against human Hep3B cells assessed as inhibition of cell proliferation incubated for 4 days by MTS assay. Type of data set: functional, cell-based. As to conditions: 96 h.
For data set [3], the target named is T2, Transitional endoplasmic reticulum ATPase. Nature of the data set: Inhibition of p97 (unknown origin) in presence of ATP by Biomol Green Reagent based assay.
The target in data set [4] is T3, Spastin (Drosophila melanogaster, UniProt Q8I0P1).
T3 sequence (Q8I0P1 whole entry): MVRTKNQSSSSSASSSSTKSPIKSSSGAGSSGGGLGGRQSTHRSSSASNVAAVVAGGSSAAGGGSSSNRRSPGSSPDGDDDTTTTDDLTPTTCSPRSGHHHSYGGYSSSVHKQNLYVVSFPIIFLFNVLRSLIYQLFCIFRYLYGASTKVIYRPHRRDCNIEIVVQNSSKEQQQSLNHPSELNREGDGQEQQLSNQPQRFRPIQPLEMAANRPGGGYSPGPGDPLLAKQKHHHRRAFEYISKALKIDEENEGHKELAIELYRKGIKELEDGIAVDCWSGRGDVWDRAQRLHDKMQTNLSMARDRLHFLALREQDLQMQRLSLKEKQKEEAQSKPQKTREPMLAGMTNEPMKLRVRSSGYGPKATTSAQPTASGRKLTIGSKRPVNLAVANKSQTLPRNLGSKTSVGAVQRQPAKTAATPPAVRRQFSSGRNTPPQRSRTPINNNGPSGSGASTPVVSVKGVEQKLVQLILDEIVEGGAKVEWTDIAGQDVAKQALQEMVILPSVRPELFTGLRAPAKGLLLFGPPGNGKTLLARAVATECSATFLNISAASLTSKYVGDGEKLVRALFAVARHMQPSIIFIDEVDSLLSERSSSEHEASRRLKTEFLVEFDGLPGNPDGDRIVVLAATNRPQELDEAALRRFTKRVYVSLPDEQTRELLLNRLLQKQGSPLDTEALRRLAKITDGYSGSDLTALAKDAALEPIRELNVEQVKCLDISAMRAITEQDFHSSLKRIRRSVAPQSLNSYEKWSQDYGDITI
Put plainly: Inhibition of wild-type Drosophila melanogaster Spastin (209 to 758 residues) in presence of ATP by NADH-coupled fluorescence assay.

Data set [5] in a line: Inhibition of Drosophila melanogaster Spastin N527C mutant (209 to 758 residues) in presence of ATP by NADH-coupled fluorescence assay.
Data set [6] relates to Schizosaccharomyces pombe. Nature of the data set: Antifungal activity against Schizosaccharomyces pombe assessed as fungal growth inhibition incubated for 18 hrs by absorbance based assay. It counts as functional.
Data set [7] can be described thus: Selectivity index, ratio of CC50 for MDCK cells to EC50 for Oseltamivir-resisitant Influenza A virus (A/North Carolina/39/2009 (H1N1)) infected in MDCK cells. It counts as toxicity, cell-based. The following applies: dog, read-out: Ratio CC50/EC50.
The test system of a further data set is Cytomegalovirus. Put plainly: Antiviral activity against human Cytomegalovirus infected in human fibroblast cells assessed as viral growth inhibition preincubated for 24 hrs with compound followed by viral infection by plaque assay. Type of data set: functional, organism-based. The following applies: Human betaherpesvirus 5, Fibroblast.
The test system of data set [8] is Influenza A virus. Nature of the data set: Antiviral activity against Influenza A virus (A/Texas/04/2009 (H1N1)) infected in MDCK cells over expressing ST6Gal I assessed as inhibition of viral replication by plaque assay. Type of data set: functional, organism-based.
Data set [9] has as its system Influenza A virus. Put plainly: Antiviral activity against Influenza A virus (A/Denmark/528/2009 (H1N1)) infected in MDCK cells over expressing ST6Gal I assessed as inhibition of viral replication by plaque assay. Type of data set: functional, organism-based.
Data set [10] can be described thus: Selectivity index, ratio of CC50 for MDCK cells to EC50 for Influenza A virus (A/Texas/04/2009 (H1N1)) infected in MDCK cells. Type of data set: toxicity, cell-based. The following applies: dog, read-out: Ratio CC50/EC50.
Data set [11] can be described thus: Selectivity index, ratio of CC50 for MDCK cells to EC50 for Influenza A virus (A/Denmark/528/2009 (H1N1)) infected in MDCK cells. Type of data set: toxicity, cell-based. The following applies: dog, read-out: Ratio CC50/EC50.
The subject of another data set is HeLa. Nature of the data set: Anticancer activity against human HeLa cells assessed as cell growth inhibition. Type of data set: functional, cell-based.

T2 sequence (P55072 whole entry): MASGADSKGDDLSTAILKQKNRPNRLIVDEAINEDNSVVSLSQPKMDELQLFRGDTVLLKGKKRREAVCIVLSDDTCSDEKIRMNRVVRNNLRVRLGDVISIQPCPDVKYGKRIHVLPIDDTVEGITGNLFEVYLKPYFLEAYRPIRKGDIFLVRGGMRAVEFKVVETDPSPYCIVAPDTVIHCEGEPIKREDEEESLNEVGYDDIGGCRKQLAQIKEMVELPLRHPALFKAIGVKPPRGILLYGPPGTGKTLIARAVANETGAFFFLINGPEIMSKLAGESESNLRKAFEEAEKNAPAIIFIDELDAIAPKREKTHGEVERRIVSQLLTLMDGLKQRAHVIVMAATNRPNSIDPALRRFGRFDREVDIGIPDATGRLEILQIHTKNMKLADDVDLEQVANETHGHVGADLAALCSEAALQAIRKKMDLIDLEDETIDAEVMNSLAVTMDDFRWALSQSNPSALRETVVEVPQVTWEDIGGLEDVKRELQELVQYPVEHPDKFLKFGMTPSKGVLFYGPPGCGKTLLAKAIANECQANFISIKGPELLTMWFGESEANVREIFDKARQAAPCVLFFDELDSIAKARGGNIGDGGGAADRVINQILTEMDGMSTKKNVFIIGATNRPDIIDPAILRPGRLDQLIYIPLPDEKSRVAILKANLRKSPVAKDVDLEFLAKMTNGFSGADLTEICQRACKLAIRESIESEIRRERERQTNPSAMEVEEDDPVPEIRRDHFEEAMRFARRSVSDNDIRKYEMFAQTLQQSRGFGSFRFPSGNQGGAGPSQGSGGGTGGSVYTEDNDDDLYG

Regarding `CC(C)[C@@H]1CN(c2nc(Nc3cc(C(C)(C)C)[nH]n3)c3cc[nH]c3n2)CCN1`, at Spastin [1], the IC50 is 99 nM.

Consider `Nc1nc(O)c2ncn(COC(CO)CO)c2n1` [GANCICLOVIR], for which the IC50 in data set [2] came to 1300 nM.

Regarding `CC(=O)c1c(O)c(C)c(O)c(Cc2c(O)c3c(c(C(=O)/C=C/c4ccccc4)c2O)OC(C)(C)C=C3)c1O` [ROTTLERIN], the IC50 in the data set on Huh-7 came to 570 nM; in the data set with Hep 3B2 it was 250 nM.

In the case of `Cc1cc(OCc2cnc(SC3CCCC3)n2-c2cccnc2)ccc1C#CCCNC(C)C`, the IC50 in data set [3] was found to be 7 nM.

Consider `C[C@@H]1CNCCN1c1nc(Nc2cc(C(C)(C)C)[nH]n2)c2ccccc2n1`, for which the IC50 on Spastin [1] stood at 4400 nM.

`C[C@@H]1CNCCN1c1nc(Nc2cc(C(C)(C)C)[nH]n2)c2cccc(F)c2n1`: the IC50 at Spastin [4] amounted to 4840 nM; in data set [5], 230 nM.

Regarding `C=C(C)CSc1nnc2c(n1)[nH]c1ccccc12`, the GI50 in data set [6] amounted to 136 nM.

With `C=C(C)CSc1nnc2c(n1)[nH]c1cc(Br)ccc12`, the GI50 in [6] was 14 nM.

For the compound `O=c1[nH]c2ccccc2n1C1CCN(Cc2ccc(-c3nc4cc5[nH]cnc5cc4nc3-c3ccccc3)cc2)CC1`, the IC50 in the data set on Huh-7 turned out to be 4000 nM; with Hep 3B2, 3500 nM.

On to `Cc1cc(OCc2nnc(SC3CCCC3)n2-c2cccnc2)ccc1-c1ccc(S(C)(=O)=O)cc1`, for which the selectivity ratio in data set [7], in data set [10] and in data set [11] was 50 throughout. The IC50 in the data set on Cytomegalovirus was found to be 130 nM. Also, the EC50 in the data set on Influenza A virus [8] and with Influenza A virus [9] was 30 nM in each case.

For `O=C(CCl)Nc1cccc(NC2=NS(=O)(=O)c3ccccc32)c1`, the IC50 with HeLa stood at 3000 nM.

Usually IC50 stands for the point on the concentration scale where inhibition reaches its midpoint. As a reminder, the GI50 is the concentration at which growth is held to half of that of the control. As a reminder, the EC50 is the midpoint of the concentration-response curve.
